The values below come from ChEMBL document CHEMBL5647685.

SMILES strings stand for the structures. Active and inactive are the calls of the source. The calls are words filed in the database; no cut-off is given here.

Test [1] relates to MSC. Description: Induction of osteoblast nodule formation in human MSC cultures assessed as mineral incorporation at 0.1 to 1 uM by blue incubated for 1 to 14 days calcein detection based fluorescent micrography. The conditions noted are these: dose 0.1-1 µM, time 1-14 day. In kind it is functional, cell-based.
Test [2] has as its system MSC. Description: Bone activity in human MSC cultures assessed as promotion of osteogenesis at 0.1 to 1 uM dosed on days 1 to 7 and measured on day 7 by alkaline phosphatase activity detection detection assay. The test is classed as functional. As to conditions: dose 0.1-1 µM, time 7.0 day.
Test [3] has as its target T1, Tyrosine-protein kinase JAK3 (Homo sapiens) (UniProt P52333).
T1 sequence (whole entry): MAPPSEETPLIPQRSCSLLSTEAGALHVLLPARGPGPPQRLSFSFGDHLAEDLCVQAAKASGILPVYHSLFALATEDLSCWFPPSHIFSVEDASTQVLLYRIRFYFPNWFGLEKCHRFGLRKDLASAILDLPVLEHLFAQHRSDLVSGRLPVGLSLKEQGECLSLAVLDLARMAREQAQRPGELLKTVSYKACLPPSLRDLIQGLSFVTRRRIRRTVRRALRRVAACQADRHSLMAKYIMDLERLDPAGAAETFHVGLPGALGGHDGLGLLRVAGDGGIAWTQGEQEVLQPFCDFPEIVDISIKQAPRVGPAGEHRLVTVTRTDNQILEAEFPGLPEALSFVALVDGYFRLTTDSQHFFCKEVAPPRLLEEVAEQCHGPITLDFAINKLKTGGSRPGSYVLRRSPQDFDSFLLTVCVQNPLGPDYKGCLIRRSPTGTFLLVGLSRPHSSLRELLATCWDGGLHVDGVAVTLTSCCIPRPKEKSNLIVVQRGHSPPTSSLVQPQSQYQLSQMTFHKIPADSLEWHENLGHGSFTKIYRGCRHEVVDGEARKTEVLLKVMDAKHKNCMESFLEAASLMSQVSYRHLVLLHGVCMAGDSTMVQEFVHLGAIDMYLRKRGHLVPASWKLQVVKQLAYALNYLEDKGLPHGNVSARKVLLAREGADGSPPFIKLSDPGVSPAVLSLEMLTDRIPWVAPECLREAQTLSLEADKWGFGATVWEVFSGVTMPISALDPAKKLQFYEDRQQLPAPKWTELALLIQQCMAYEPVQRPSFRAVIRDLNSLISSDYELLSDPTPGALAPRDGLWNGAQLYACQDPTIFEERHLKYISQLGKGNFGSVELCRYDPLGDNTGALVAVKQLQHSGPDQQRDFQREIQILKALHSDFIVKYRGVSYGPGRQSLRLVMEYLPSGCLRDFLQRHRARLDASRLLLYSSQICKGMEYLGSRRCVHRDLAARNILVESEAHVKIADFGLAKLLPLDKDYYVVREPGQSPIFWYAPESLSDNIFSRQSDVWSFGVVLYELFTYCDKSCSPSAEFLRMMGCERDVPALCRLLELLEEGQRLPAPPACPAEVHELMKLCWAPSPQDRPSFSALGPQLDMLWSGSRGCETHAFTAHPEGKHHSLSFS
Briefly: Inhibition of full-length C-terminal his-tagged human JAK3 at 1 uM pre-incubated with enzyme for 1 h prior to the addition of 500 uM ATP relative to control.

The target of test [4] is High affinity nerve growth factor receptor (Homo sapiens) (UniProt P04629). Briefly: Inhibition of full-length C-terminal his-tagged human TRKA at 1 uM pre-incubated with enzyme for 1 h prior to the addition of 500 uM ATP relative to control.
Chain of High affinity nerve growth factor receptor (Homo sapiens) (P04629 33-796 limits assumed): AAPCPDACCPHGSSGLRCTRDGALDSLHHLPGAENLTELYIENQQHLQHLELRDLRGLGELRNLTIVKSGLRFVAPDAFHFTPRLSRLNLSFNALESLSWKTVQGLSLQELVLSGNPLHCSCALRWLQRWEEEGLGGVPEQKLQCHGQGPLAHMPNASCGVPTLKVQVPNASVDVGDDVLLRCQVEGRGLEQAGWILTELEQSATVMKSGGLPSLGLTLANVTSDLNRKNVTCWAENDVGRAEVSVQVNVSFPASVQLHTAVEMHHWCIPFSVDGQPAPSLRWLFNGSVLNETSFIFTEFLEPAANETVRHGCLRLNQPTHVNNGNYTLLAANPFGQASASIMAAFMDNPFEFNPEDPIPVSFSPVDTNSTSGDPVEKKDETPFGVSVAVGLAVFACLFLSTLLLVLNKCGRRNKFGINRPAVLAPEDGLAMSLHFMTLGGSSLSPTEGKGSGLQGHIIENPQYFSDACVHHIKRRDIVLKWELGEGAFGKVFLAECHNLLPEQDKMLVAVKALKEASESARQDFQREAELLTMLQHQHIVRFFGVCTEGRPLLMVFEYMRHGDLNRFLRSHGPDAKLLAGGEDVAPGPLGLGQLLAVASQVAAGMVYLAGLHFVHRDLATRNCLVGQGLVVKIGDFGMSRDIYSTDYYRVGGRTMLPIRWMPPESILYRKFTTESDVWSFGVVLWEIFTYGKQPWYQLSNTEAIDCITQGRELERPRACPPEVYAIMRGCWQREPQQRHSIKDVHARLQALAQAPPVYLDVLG
The subject of test [5] is MSC. Description: Bone activity in human MSC cultures assessed as promotion of osteogenesis at 0.1 to 1 uM dosed on days 4 to 7 and measured on day 7 by alkaline phosphatase activity detection detection assay. In kind it is functional. The conditions noted are these: dose 0.1-1 µM, time 4.0 day.
Test [6] addresses T2, Aurora kinase A (Homo sapiens) (UniProt O14965).
T2 sequence (whole entry): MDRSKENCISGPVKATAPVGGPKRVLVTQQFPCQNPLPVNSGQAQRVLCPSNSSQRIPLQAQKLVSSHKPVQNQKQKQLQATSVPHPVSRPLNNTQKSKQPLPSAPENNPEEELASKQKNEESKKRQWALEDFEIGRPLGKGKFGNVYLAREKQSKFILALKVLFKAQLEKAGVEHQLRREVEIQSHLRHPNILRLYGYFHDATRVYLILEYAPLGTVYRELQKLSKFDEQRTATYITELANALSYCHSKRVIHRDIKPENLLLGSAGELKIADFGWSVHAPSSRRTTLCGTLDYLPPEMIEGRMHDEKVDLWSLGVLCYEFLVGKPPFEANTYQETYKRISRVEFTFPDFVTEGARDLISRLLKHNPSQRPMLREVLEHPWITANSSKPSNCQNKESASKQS
Briefly: Inhibition of full-length C-terminal his-tagged human AUR2 at 1 uM pre-incubated with enzyme for 1 h prior to the addition of 500 uM ATP relative to control.

With `Cc1ccc(-n2nc(C(C)(C)C)cc2NC(=O)Nc2cc(COc3cccnc3)n[nH]2)cc1`, the outcome in the test on MSC [1] was Active. In addition, in the test on MSC [2], the Activity entry was “Dose-Dependent Effect”.
In the case of `CN(c1ccccc1CNc1nc(Nc2ccc3c(c2)CC(=O)N3)ncc1C(F)(F)F)S(C)(=O)=O`, the inhibition in test [3], in test [4] and in test [6] was more than 90% throughout. In addition, the outcome in the test with MSC [1] was inactive. For the same molecule, the outcome in the test on MSC [5] was Active.
